Laboratory results published in patent US11123319B2, “Methods and compositions for treating edema refractory to oral diuretics” (RESQ Pharmaceuticals LLC, priority 2019, dated 2021).
Where a name gives a salt, the structure may show the parent alone.

What was measured:
[1] = Solubility of bumetanide (free acid) in water in the presence and absence of surfactant, HPLC; assay type: physicochemical; conditions: 10 mg in 1 mL deionized water, no surfactant
Experimental: Bumetanide, 10 mg, in its free acid form was added to 1 mL of deionized water and mixed using a vortex and sonicator. The solution was filtered using a 0.22 μm nylon syringe filter. To 900 μL deionized water, 100 μL of the filtered bumetanide solution was added before being characterized for the concentration of the bumetanide in solution using HPLC. The concentration of bumetanide was determined using a standard curve generated by bumetanide solutions of known concentrations. […] Therefore, to the 10 mg of bumetanide, 1 mL of deionized water containing 1.0%, 0.5% or 0.1% of the surfactant tetradecyl-β-D-maltoside. The bumetanide was then solubilized using a vortex and sonicator, after which it was filtered using a 0.22 μm nylon syringe filter. To 900 μL deionized water, 100 μL of the filtered bumetanide solution was added before being characterized for the concentration of the bumetanide in solution using HPLC. The resulting bumetanide concentrations are recorded in Table 1.

[2] = Serum pharmacokinetics of bumetanide after single intranasal, sublingual or intravenous dose in dogs; conditions: both sexes, beagle, dog, in vivo, 0.5-mg IV dose (Second Replicate), individual animals
Experimental: The purpose of this study was to assess the pharmacokinetic profiles of various formulations of bumetanide, including arginine bumetanide salts (F69), potassium bumetanide salts (F10), an bumetanide emulsion (FE-9), and a nano-emulsion of bumetanide (FNE-1), which are described in Table 42, when each formulation is administered as a single intranasal dose or as a single sublingual dose in different vehicles when compared to single IV administration dose in male and female beagle dogs.
A total of four dogs were assigned to the study (3 males, 8-12 kg and 1 female, 7-11 kg). Because bumetanide is a diuretic, 30 minutes prior to dosing, the dogs received a 100 mL injection of Lactated Ringer's solution subcutaneously (SQ) for all events. The 100 mL injection was repeated ˜2 hours post-dose.
This study was conducted in 9 Events in two phases (A and B) in the same animals, separated by approximately a 48 hour or more washout period between events in each phase and ˜2 weeks rest period between phases, meaning Phase B events were initiated after ˜2 weeks rest period from completion of Event 5. The dosing regimen for Phase A and Phase B events are described in Table 43 and 44 respectively.
For intranasal administration, each dog was held in an upright position with the nose pointing up. […]

[3] = Stability of arginine and potassium bumetanide salt solutions over four weeks at 5 °C or 25 °C; assay type: physicochemical; conditions: for stability in solution (conclusion): at either 5° C. or 25° C.
Experimental: The stability of the arginine and potassium bumetanide salts was monitored over a four week period with storage at either 2-8° C. or 25° C. for that time period. The bumetanide salt solutions were evaluated on the basis of pH, concentration of bumetanide in solution, the percent assay recovery and the presence of an impurity (see Tables 18 and 19).

[4] = Solubility of bumetanide salts formed in situ with various bases (saturated solution, HPLC); assay type: physicochemical; conditions: deionized water with base added (salt formed in situ), thermodynamic from solid, 20 mg bumetanide in 1 mL deionized water + base, 0.22 μm filtrate, read-out: Calculated conc. (measured solubility of bumetanide salt)
Experimental: The acid form of bumetanide was weighed out to 20 mg and dissolved in 1 mL of deionized water by mixing with a vortex to form a low-pH solution of bumetanide. To this low pH bumetanide solution, a determined amount of base was added and mixed using a vortex for 2 minutes, to form a solution having a pH suitable for nasal administration. With the increasing pH the bumetanide salt formed in situ precipitated, in part, to form a saturated solution of the resulting salt form. The saturated solution was then filtered through a 0.22 μm filter to remove all precipitated bumetanide salt. The filtrate was collected, and its pH was measured. An aliquot of the saturated solution was assayed for bumetanide by HPLC to determine the maximum concentration achievable for the salt form in water at about neutral pH.
This procedure was repeated for various bases, including arginine, lysine, potassium, sodium, glycine, histidine, and the cationic lipophilic surfactants soy lecithin, distearoyl glycerol-3-phosphatidylamine, L-α-phosphatidylethanolamine and bis(2-ethylhexyl)amine, in order to determine the maximum solubility of each bumetanide salt solution.

| SMILES | Assay ([3]; 1 week, 5° C.) | pH ([3]; 1 week, 5° C.) | Assay ([3]; 1 week, 25° C.) | pH ([3]; 1 week, 25° C.) | Assay ([3]; 2 weeks, 5° C.) | pH ([3]; 2 weeks, 5° C.) | Assay ([3]; 2 weeks, 25° C.) | pH ([3]; 2 weeks, 25° C.) | Assay ([3]; 4 weeks, 5° C.) | pH ([3]; 4 weeks, 5° C.) | Assay ([3]; 4 weeks, 25° C.) | pH ([3]; 4 weeks, 25° C.) | Assay ([3]; T0) | Osmolality ([3]; T0) | Viscosity ([3]; T0) | pH ([3]; T0) | stability in solution (conclusion) [3] | other results |
| --- | --- | --- | --- | --- | --- | --- | --- | --- | --- | --- | --- | --- | --- | --- | --- | --- | --- | --- |
| CCCCNc1cc(C(=O)O)cc(S(N)(=O)=O)c1Oc1ccccc1 [Bumetanide, bumetanide] |  |  |  |  |  |  |  |  |  |  |  |  |  |  |  |  |  | solubility of free acid form in water [1]: Nearly no bumetanide in the free acid form was soluble water; concentration at 45 min [2]: 13.9 ng/mL |
| CCCCNc1cc(C(=O)O)cc(S(N)(=O)=O)c1Oc1ccccc1.N=C(N)NCCCC(N)C(=O)O [arginine bumetanide salt] | 5.08 mg/mL | 7.0 | 5.06 mg/mL | 7.1 | 4.99 mg/mL | 7.0 | 4.97 mg/mL | 7.0 | 4.89 mg/mL | 7.0 | 4.97 mg/mL | 7.1 | 5.07 mg/mL | 335 mOsm/kg | 1.3 cP | 7.0 | stable for up to four weeks | impurity by HPLC ([3]; initially or after four weeks, 5° C. and 25° C.): no impurity was detected |
| CCCCNc1cc(C(=O)O)cc(S(N)(=O)=O)c1Oc1ccccc1 [potassium bumetanide salt] | 5.18 mg/mL | 7.0 | 5.10 mg/mL | 7.0 | 4.97 mg/mL | 7.0 | 4.96 mg/mL | 7.1 | 5.00 mg/mL | 7.0 | 5.03 mg/mL | 7.1 | 5.10 mg/mL | 317 mOsm/kg | 1.3 cP | 7.0 | stable for up to four weeks | solubility at 2 min [4]: 20.2 mg/mL |
